The values that follow come from patent publication US20160024057A1, “INDAZOLE RETINOIC ACID RECEPTOR-RELATED ORPHAN RECEPTOR MODULATORS AND USES THEREOF” (INNOV17 LLC, priority 2014, published 2016).

Format in all cases: cell-based
The test system of one test is IL-17F. Put plainly: Human TH17 cytokine inhibition measured by ELISA: IL-17F. The conditions noted are these: 72 h; human CD4+ T cells under TH17-polarizing conditions, 3 days, supernatant ELISA. How it is done:
(§1) Human TH17 Cytokine Inhibition as Measured by ELISA
(§2) Peripheral blood mononuclear cells (PBMCs) were sourced from freshly prepared leukocyte enriched plasma (buffy coat) from healthy donors (New York Blood Center). PBMCs were isolated by density gradient centrifugation using Ficoll-Paque™ PLUS (GE Healthcare). Human CD4+ T cells were seeded into 96-well plates (5×10^4 cells/well) and activated with plate-bound anti-human (h)-CD3 antibody and soluble h-aCD28 (both at 1 ug/ml; eBioscience) and differentiated into TH17 cells with 20 ng/mL h-IL-6, 5 ng/mL h-TGF-β1, 10 ng/mL h-IL-23 (eBioscience) and 10 ng/mL IL-1β (Miltenyi Biotec) in serum-free TexMACS Medium (Miltenyi Biotec) supplemented with 1% Penicillin/Streptomycin (Lonza) for 3 days. CD4+ T cells propagated under TH17-polarizing conditions were cultured in the presence or absence of various concentrations of compounds with a final concentration of 0.1% DMSO. Supernatants were collected and stored at −20° C. until assayed for IL-17A, IL-17F and IL-21 levels by “Ready-Set-Go” ELISA kits (eBioscience) as per manufacturer's instructions. Endpoint absorbance was read at 450 nm using a microplate reader (Perkin Elmer).

The subject of a further test is IL-17A. In words: Human TH17 cytokine inhibition measured by ELISA: IL-17A. Conditions: human CD4+ T cells under TH17-polarizing conditions, 3 days, supernatant ELISA. As to the method: as §1, §2
Another test has as its system IL-21. In words: Human TH17 cytokine inhibition measured by ELISA: IL-21. The conditions noted are these: 72 h; human CD4+ T cells under TH17-polarizing conditions, 3 days, supernatant ELISA. As to the method: as §1, §2
For a further test, the system named is IL-22. In words: Human TH17 cytokine inhibition measured by ELISA: IL-22. The conditions noted are these: 72 h; human CD4+ T cells under TH17-polarizing conditions, 3 days, supernatant ELISA.

With `C[C@@H]1C[C@H](Cn2ncc3cc(-c4cn[nH]c4)ccc32)CN1S(=O)(=O)c1ccccc1` (racemic) [Example 33, rac.-cis-1-((-5-methyl-1-(phenylsulfonyl)pyrrolidin-3-yl)methyl)-5-(1H-pyrazol-4-yl)-1H-indazole], the IC50 with IL-17F, in the test on IL-17A (72 h) and with IL-21 was under 10 µM in each case.

In the test with IL-17A, `C[C@@H]1C[C@@H](Cn2ncc3cc(-c4cn[nH]c4)ccc32)CN1S(=O)(=O)c1ccccc1` (racemic) [Example 34, rac.-trans-1-((-5-methyl-1-(phenylsulfonyl)pyrrolidin-3-yl)methyl)-5-(1H-pyrazol-4-yl)-1H-indazole] displayed an IC50 of under 10 µM.

In the case of `C[C@H]1C[C@@H](Cn2ncc3cc(-c4cn[nH]c4)ccc32)CN1C(=O)CCc1ccccc1` (racemic) [Example 46, rac.-cis-1-(4-((5-(1H-pyrazol-4-yl)-1H-indazol-1-yl)methyl)-2-methylpyrrolidin-1-yl)-3-phenylpropan-1-one], the concentration for half-maximal inhibition (IC50) in the test on IL-17F, with IL-17A (72 h) and with IL-21 was under 10 µM throughout.

Consider `C[C@@H]1C[C@@H](Cn2ncc3cc(-c4cn[nH]c4)ccc32)CN1C(=O)CCc1ccccc1` (racemic) [Example 47, rac.-trans-1-(4-((5-(1H-pyrazol-4-yl)-1H-indazol-1-yl)methyl)-2-methylpyrrolidin-1-yl)-3-phenylpropan-1-one], for which the IC50 in the test on IL-17F, in the test on IL-17A (72 h) and in the test on IL-21 was under 10 µM throughout.

Consider `O=C(CCc1ccccc1)N1CCC(Cn2ncc3cc(-c4cn[nH]c4)ccc32)CC1` [Example 3, 1-(4-((5-(1H-pyrazol-4-yl)-1H-indazol-1-yl)methyl)piperidin-1-yl)-3-phenylpropan-1-one], for which the IC50 in the test on IL-17F, in the test with IL-17A (72 h) and in the test with IL-21 was under 10 µM each time.

In the case of `O=C(CC1CCCCC1)N1CCC(Cn2ncc3cc(-c4cn[nH]c4)ccc32)CC1` [Example 4, 1-(4-((5-(1H-pyrazol-4-yl)-1H-indazol-1-yl)methyl)piperidin-1-yl)-2-cyclohexylethanone], the IC50 with IL-17F, in the test with IL-17A (72 h) and in the test on IL-21 was under 10 µM each time.

As to `O=C(Cc1ccccc1)N1CCC(Cn2ncc3cc(-c4cn[nH]c4)ccc32)CC1` [Example 7, 1-(4-((5-(1H-pyrazol-4-yl)-1H-indazol-1-yl)methyl)piperidin-1-yl)-2-phenylethanone], the IC50 in the test with IL-17F, in the test with IL-17A (72 h) and in the test on IL-21 was under 10 µM each time.

In the case of `O=C(CCCc1ccccc1)N1CCC(Cn2ncc3cc(-c4cn[nH]c4)ccc32)CC1` [Example 8, 1-(4-((5-(1H-pyrazol-4-yl)-1H-indazol-1-yl)methyl)piperidin-1-yl)-4-phenylbutan-1-one], the half-maximal inhibitory concentration (IC50) in the test with IL-17F, in the test on IL-17A (72 h) and in the test on IL-21 was under 10 µM in each case.

Take `CC1(C)CC(Cn2ncc3cc(-c4cn[nH]c4)ccc32)CN1C(=O)Cc1ccccc1` (centres unmarked) [Example 19, 1-(4-((5-(1H-pyrazol-4-yl)-1H-indazol-1-yl)methyl)-2,2-dimethylpyrrolidin-1-yl)-2-phenylethanone]: the concentration for half-maximal inhibition (IC50) in the test with IL-17F and in the test with IL-17A (72 h) was under 10 µM throughout.

On to `O=S(=O)(c1ccccc1)N1CCC(Cn2ncc3cc(-c4cn[nH]c4)ccc32)CC1` [Example 30, 1-((1-(phenylsulfonyl)piperidin-4-yl)methyl)-5-(1H-pyrazol-4-yl)-1H-indazole], for which the half-maximal inhibitory concentration (IC50) in the test on IL-17F, in the test on IL-22, with IL-17A (72 h) and in the test with IL-21 was under 10 µM in each case.

Regarding `O=S(=O)(Cc1ccccc1)N1CCC(Cn2ncc3cc(-c4cn[nH]c4)ccc32)CC1` [Example 32, 1-((1-(benzylsulfonyl)piperidin-4-yl)methyl)-5-(1H-pyrazol-4-yl)-1H-indazole], the IC50 with IL-17F, with IL-22, in the test on IL-17A (72 h) and with IL-21 was under 10 µM each time.

Regarding `CC1(C)CC(Cn2ncc3cc(-c4cn[nH]c4)ccc32)CN1S(=O)(=O)c1ccccc1` (centres unmarked) [Example 35, 1-((5,5-dimethyl-1-(phenylsulfonyl)pyrrolidin-3-yl)methyl)-5-(1H-pyrazol-4-yl)-1H-indazole], the IC50 in the test on IL-17F, in the test on IL-17A (72 h) and in the test with IL-21 was under 10 µM each time.

For `O=S(=O)(c1ccc(F)cc1)N1CCC(Cn2ncc3cc(-c4cn[nH]c4)ccc32)CC1` [Example 37, 1-((1-((4-fluorophenyl)sulfonyl)piperidin-4-yl)methyl)-5-(1H-pyrazol-4-yl)-1H-indazole], the IC50 in the test on IL-17F and in the test on IL-17A (72 h) was under 10 µM throughout.

As for `N#Cc1ccc(S(=O)(=O)N2CCC(Cn3ncc4cc(-c5cn[nH]c5)ccc43)CC2)cc1` [Example 38, 4-(4-((5-(1H-pyrazol-4-yl)-1H-indazol-1-yl)methyl)piperidin-1-ylsulfonyl)benzonitrile], the IC50 in the test on IL-17F and in the test on IL-17A (72 h) was under 10 µM each time.

As to `O=S(=O)(c1cccnc1)N1CCC(Cn2ncc3cc(-c4cn[nH]c4)ccc32)CC1` [Example 39, 5-(1H-pyrazol-4-yl)-1-((1-(pyridin-3-ylsulfonyl)piperidin-4-yl)methyl)-1H-indazole], the IC50 in the test on IL-17F and in the test with IL-17A (72 h) was under 10 µM throughout.

`Cc1ccc(S(=O)(=O)N2CCC(Cn3ncc4cc(-c5cn[nH]c5)ccc43)CC2)cc1` [Example 42, 5-(1H-pyrazol-4-yl)-1-((1-tosylpiperidin-4-yl)methyl)-1H-indazole]: the IC50 in the test with IL-17F and with IL-17A (72 h) was under 10 µM each time.

With `N#Cc1cccc(S(=O)(=O)N2CCC(Cn3ncc4cc(-c5cn[nH]c5)ccc43)CC2)c1` [Example 43, 3-((4-((5-(1H-pyrazol-4-yl)-1H-indazol-1-yl)methyl)piperidin-1-yl)sulfonyl)benzonitrile], the concentration for half-maximal inhibition (IC50) with IL-17F and with IL-17A (72 h) was under 10 µM in each case.

Regarding `O=S(=O)(c1ccc(C(F)F)cc1)N1CCC(Cn2ncc3cc(-c4cn[nH]c4)ccc32)CC1` [Example 44, 1-((1-((4-(difluoromethyl)phenyl)sulfonyl)piperidin-4-yl)methyl)-5-(1H-pyrazol-4-yl)-1H-indazole], the IC50 in the test with IL-17F and with IL-17A (72 h) was under 10 µM in each case.
